# According to patent US9642922B2, “Caspase-triggered nano-aggregation probes and methods of use” (The Board of Trustees of the Leland Stanford Junior …, priority 2013, dated 2017):
# Numbering of substitutions follows the chain as printed. Marks after values point to notes of the source that are not given here.
# B1: [^18F]Annexin V: known apoptosis PET tracer, PS binding (protein, UniProt P08758 2-320, looked up)
# Annexin A5: AQVLRGTVTDFPGFDERADAETLRKAMKGLGTDEESILTLLTSRSNAQRQEISAAFKTLFGRDLLDDLKSELTGKFEKLIVALMKPSRLYDAYELKHALKGAGTNEKVLTEIIASRTPEELRAIKQVYEEEYGSSLEDDVVGDTSGYYQRMLVVLLQANRDPDAGIDEAQVEQDAQALFQAGELKWGTDEEKFITIFGTRSVSHLRKVFDKYMTISGFQIEETIDRETSGNLEQLLLAVVKSIRSIPAYLAETLYYAMKGAGTDDHTLIRVMVSRSEIDLFNIRKEFRKNFATSLYSMIKGDTSGDYKKALLLLCGEDD
# modifications: 18F radiolabel
# Experiments:
# caspase-3 [1] = molecular target: T1, caspase-3 (Homo sapiens, UniProt P42574); assay: HPLC assay of caspase-3-triggered macrocyclization of C-SNAF; format: biochemical; parameters: purchased Sigma; host or cells: E. coli; settings: same conditions as C-SNAF; D-ctrl after 24 h
# T1 sequence (P42574 29-175 limits assumed): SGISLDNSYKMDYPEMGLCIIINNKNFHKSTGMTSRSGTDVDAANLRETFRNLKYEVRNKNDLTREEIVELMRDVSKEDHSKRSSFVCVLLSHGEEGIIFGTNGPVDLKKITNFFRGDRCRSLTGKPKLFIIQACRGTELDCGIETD
# T1 sequence (P42574 176-277 limits assumed): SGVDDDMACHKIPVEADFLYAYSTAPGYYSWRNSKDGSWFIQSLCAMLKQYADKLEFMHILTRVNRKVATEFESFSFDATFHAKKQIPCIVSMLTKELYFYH
# Procedure: The progression of caspase-3-triggered macrocyclization of C-SNAF to form C-SNAF-cycl in solution was monitored using high-performance liquid chromatography (HPLC) following incubation of the probe (25 μM) with recombinant human caspase-3 (4.9×10^−[…]).
# Caspase (human, recombinant from E. coli) assays were performed for caspase-3 (4.9×10^−3 U; 7.35×10^−4 mg, Sigma), −7 (18.3 U; 7.35×10^−4 mg, Calbiochem), and −9 (0.3 U; 7.35×10^−4 mg, Calbiochem). All caspase assays were conducted in caspase buffer with 50 mM HEPES, 100 mM NaCl, 1 mM EDTA, 10 mM TCEP, 10% glycerol, and 0.1% CHAPS at pH 7.4. Cathepsin B (human liver; 0.27 U; 7.35×10^−4 mg, Calbiochem) and Legumain (human, recombinant from mouse myeloma cell line; >250 pmol/min/μg; 7.35×10^−4 mg, R&D Systems) were conducted in reaction buffer with 50 mM sodium acetate, 50 mM NaCl, 0.5 mM EDTA and 10 mM TCEP at pH 5.5. C-SNAF was diluted in the respective enzyme reaction buffer (25 μM, 1 mL) and remained at room temperature for 10 min, to which was then added the respective enzymes. Reactions were performed at 37° C., and monitored by HPLC hourly. The percentage conversion of the reaction was calculated based on the percentage of peak area of C-SNAF-cycl in the HPLC trace at 675 nm UV detection, which indicated the efficacy of enzyme cleavage of C-SNAF.
# [2] = tested on: STS-induced apoptotic HeLa cells; assay: Flow cytometry of STS-induced apoptotic HeLa cells labeled with probes; format: cell-based, human; settings: 2 μM probe, compared with C-SNAF
# Procedure: Approximately 10^5 HeLa cells in 1 mL DMEM medium were seeded onto 12-well plates. […] For the inhibitor blocking experiment, the STS-treated cells were first incubated with the caspase inhibitor Z-VAD-fmk (50 μM, R&D Systems) for 30 min, and then 2 μM C-SNAF was added. All cells incubations were 24 h, followed by staining with FLICA (FAM) after trypsinization. After washing with PBS (1×) three times, the cell pellets were resuspended in 300 μL PBS and applied for flow cytometry analysis using the FITC and Cy5.5 channels. The cell number for each flow cytometry analysis was approximately 5000 to 10000, and the data was processed using FlowJo software.
# apoptotic HeLa cells = assay: Epifluorescence microscopy of apoptotic HeLa cells labeled with probes; format: cell-based, human; settings: microscopy, 2 μM probe
# Procedure: After removal of the medium, the cells were incubated with C-SNAF, L-ctrl, or D-ctrl at 2 μM for 24 h. Some cells were first incubated with caspase inhibitor (Z-VAD-fmk, 50 μM) for 30 min, followed by incubating with 2 μM C-SNAF for 24 h. The cells were carefully washed with PBS (1×) three times, and stained with Hoechst 33342 (2 μM) at 37° C. for 30 min. After rinses with PBS (1×) several times, the medium was replaced and the fluorescence images were acquired with DAPI and Cy5.5 filters. The images were processed using the standard CRi Nuance software, analyzed using Image J software package (NIH), and presented at the same intensity scale for comparison.
# HeLa cells in #1.5 borosilicate 8-well chambered coverslips (Nunc) were either incubated with C-SNAF (2 μM) alone or co-incubated with DOX (1, 2, and 5 μM) and 2 μM C-SNAF, 2 μM C-SNAF together with caspase inhibitor (Z-VAD-fmk, 50 μM), or control probes D-ctrl and L-ctrl at 2 μM for 24 h. Then the medium was removed, the cells were carefully washed with PBS (1×) three times, and stained with nuclear binding probe Hoechst 33342 (2 μM) at 37° C. for 30 min. After several rinses with PBS (1×), the medium was replaced and the fluorescence images were acquired with DAPI and […] filters.
# subcutaneous HeLa tumors = assay: In vivo fluorescence imaging of DOX-treated HeLa tumor-bearing mice; parameters: species or system mouse
# Procedure: C-SNAF or either of the control probes (5 nmol) was administered intravenously to tumor-bearing mice and whole animal fluorescence was longitudinally monitored using a Maestro fluorescence imager.
# To establish tumors in 6-week-old female nu/nu mice, 2×10^6 HeLa cells suspended in 50 μL of a 50% v/v mixture of Matrigel in supplemented DMEM (10% FBS, 1% penstrep) were injected subcutaneously in the shoulders of the mouse. Tumors were grown until a single aspect was 0.7 to 0.9 cm (approximately 10-15 days), and then treatment consisting of 8 mg/kg DOX or saline was initiated. Treatments were administered intravenously once every 4 d for a total of three times. Total mouse body weight and tumor size (width and length by caliper) was measured every other day. Tumor volumes were calculated assuming ellipsoid shape with the formula (l×w^2)/2.
# Two days following the final treatment, 5 nmol probe in saline was injected intravenously and fluorescence imaging began immediately on a Maestro hyperspectral fluorescent imaging system (PerkinElmer, Mass., USA) using a 635±25 nm excitation filter and a 675 nm long-pass emission filter, with images acquired from 670 to 900 nm. Tissue autofluorescence and Cy5.5 fluorescence were deconvolved, and tumor fluorescence intensity was quantified by region of interest measurement using Nuance v.3.0.1.2 software (Perkin Elmer, Mass., USA).
# Caspase-3 [3] = molecular target: T2, Caspase-3 (Mus musculus, UniProt P70677); settings: cited from earlier work
# T2 sequence (P70677 29-175 limits assumed): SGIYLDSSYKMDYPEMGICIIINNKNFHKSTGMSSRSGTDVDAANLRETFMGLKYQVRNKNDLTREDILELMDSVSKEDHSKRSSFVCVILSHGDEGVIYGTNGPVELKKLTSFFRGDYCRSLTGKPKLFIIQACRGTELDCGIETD
# T2 sequence (P70677 176-277 limits assumed): T1 sequence (P42574 176-277 limits assumed) with V3T, D5E, D6E, H10Q, A46S, Q50L, D53H, F77L, A79S
# PS binding = settings: cited from earlier work
molecule,measurement,setting,value
CC[N+]1=C(C=CC=CC=C2N(CCCCCC(=O)NCCCCC(NC(=O)C(CSC)NC(=O)C(CC(=O)O)NC(=O)C(NC(=O)C(CCC(=O)O)NC(=O)C(CC(=O)O)NC(C)=O)C(C)C)C(=O)Nc3ccc4nc(C5=NC(C(=O)NCCCOc6ccc7ncccc7c6)CS5)sc4c3)c3ccc4c(S(=O)(=O)O)cc(S(=O)(=O)O)cc4c3C2(C)C)C(C)(C)c2c1ccc1c(S(=O)(=O)O)cc(S(=O)(=O)[O-])cc21 [D-ctrl],products observed after incubation with caspase-3,caspase-3 [1],no new products were observed
same,fluorescent intensity of apoptotic cells incubated with control probes,[2],much lower fluorescent intensity
same,fluorescence of apoptotic cells compared to C-SNAF,apoptotic HeLa cells,relatively weaker fluorescence
same,correlation (r) of maximum tumor fluorescence with maximum tumor size change,"subcutaneous HeLa tumors; 3×DOX-treated mice, 1 h after probe",no significant correlation
same,average signal enhancement between DOX- and saline-treated tumors,subcutaneous HeLa tumors; 4 h after probe administration,−12%
same,tumor fluorescence lower than that of C-SNAF,"subcutaneous HeLa tumors; DOX-treated mice, 1 h",10%
O=C1C(=O)N(Cc2cn(CC[18F])nn2)c2ccc(S(=O)(=O)N3CCCC3COc3ccc(F)cc3F)cc21 (stereo not drawn) [[^18F]ICMT-11],Target/Background (Tumor/blood),Caspase-3 [3]; Tumor/blood,1.2^c
same,time course of uptake at the apoptotic tumors,"Caspase-3 [3]; mouse, in vivo",decreased over the time after injection
same,Treated/Untreated,Caspase-3 [3]; treated and untreated group in different animal,1.5^d
B1,% ID/g at target site,PS binding; PET imaging,1.56 ± 0.2 % ID/g
same,Target/Background,PS binding; maximum value at the apoptotic tissue,3.4
same,Treated/Untreated,PS binding; pre and post treatment in same animal,1.6^b
